Data reported in ChEMBL document CHEMBL3593241, “Leveraging the Pre-DFG Residue Thr-406 To Obtain High Kinase Selectivity in an Aminopyrazole-Type PAK1 Inhibitor Series” (ACS Med Chem Lett, 2015).
One block for each compound: values may come before it.

Experiments:
[1] = molecular target: T1, Serine/threonine-protein kinase PAK 1 (Homo sapiens, UniProt Q13153); assay: Inhibition of PAK1 (unknown origin)
[2] = molecular target: T2, Serine/threonine-protein kinase PAK 4 (Homo sapiens, UniProt O96013); assay: Inhibition of PAK4 (unknown origin)
Target sequence in this assay (O96013 whole entry): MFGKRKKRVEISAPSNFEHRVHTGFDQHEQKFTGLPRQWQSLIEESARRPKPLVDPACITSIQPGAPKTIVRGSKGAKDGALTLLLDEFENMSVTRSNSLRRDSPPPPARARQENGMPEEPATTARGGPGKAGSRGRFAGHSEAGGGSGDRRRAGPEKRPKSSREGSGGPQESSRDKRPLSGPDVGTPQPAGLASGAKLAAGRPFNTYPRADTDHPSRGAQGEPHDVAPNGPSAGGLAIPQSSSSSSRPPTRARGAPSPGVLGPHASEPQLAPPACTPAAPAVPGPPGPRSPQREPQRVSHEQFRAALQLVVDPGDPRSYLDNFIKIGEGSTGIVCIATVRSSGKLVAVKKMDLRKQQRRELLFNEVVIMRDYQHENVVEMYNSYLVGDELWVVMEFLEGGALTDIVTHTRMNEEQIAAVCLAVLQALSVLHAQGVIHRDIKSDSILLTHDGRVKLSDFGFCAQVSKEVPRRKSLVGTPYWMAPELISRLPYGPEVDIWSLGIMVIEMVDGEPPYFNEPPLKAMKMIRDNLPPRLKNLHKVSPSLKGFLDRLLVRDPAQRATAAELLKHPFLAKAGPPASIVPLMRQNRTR

[3] = molecular target: T3, Aurora kinase A (Homo sapiens, UniProt O14965); assay: Inhibition of Aurora A (unknown origin)
T3 sequence (O14965 whole entry): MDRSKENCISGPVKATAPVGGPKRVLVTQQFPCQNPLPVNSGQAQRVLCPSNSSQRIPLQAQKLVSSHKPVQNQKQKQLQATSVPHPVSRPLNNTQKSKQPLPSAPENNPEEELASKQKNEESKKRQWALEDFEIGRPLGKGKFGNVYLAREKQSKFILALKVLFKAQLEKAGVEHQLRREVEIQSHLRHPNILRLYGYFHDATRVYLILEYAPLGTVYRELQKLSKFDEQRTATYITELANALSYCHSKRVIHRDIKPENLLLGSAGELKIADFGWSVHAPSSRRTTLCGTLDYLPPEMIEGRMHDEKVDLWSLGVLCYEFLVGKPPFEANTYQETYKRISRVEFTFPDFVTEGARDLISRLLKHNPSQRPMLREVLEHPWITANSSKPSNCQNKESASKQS

[4] = molecular target: Protein kinase C theta type (Homo sapiens) (UniProt Q04759); assay: Inhibition of recombinant human PKCtheta at 1 uM relative to control
[5] = molecular target: CDK2/Cyclin A2 (Homo sapiens) (UniProt P24941+P20248); assay: Inhibition of recombinant human CDK2/cyclin A at 1 uM relative to control; format: protein-complex assay
[6] = molecular target: Ribosomal protein S6 kinase alpha-2 (Homo sapiens) (UniProt Q15349); details: 1 uM
Description: Inhibition of recombinant human RSK3 at 1 uM relative to control

[7] = molecular target: Aurora kinase A (Homo sapiens) (UniProt O14965); details: 1 uM
Description: Inhibition of recombinant human Aurora A at 1 uM relative to control

[8] = molecular target: Cyclin-dependent kinase 1/cyclin B1 (Homo sapiens) (UniProt P06493+P14635); details: 1 uM
Description: Inhibition of recombinant human CDK1/cyclin B at 1 uM relative to control

[9] = molecular target: Cyclin-dependent kinase 5/CDK5 activator 1 (Homo sapiens) (UniProt Q00535+Q15078); details: 1 uM
Description: Inhibition of recombinant human CDK5/p25 at 1 uM relative to control

[10] = molecular target: Cyclin-dependent kinase 7/ cyclin H (Homo sapiens) (UniProt P51946+P50613); details: 1 uM
Description: Inhibition of recombinant human CDK7/cyclin H at 1 uM relative to control

[11] = molecular target: Myotonin-protein kinase (Homo sapiens) (UniProt Q09013); details: 1 uM
Description: Inhibition of recombinant human DMPK at 1 uM relative to control

[12] = molecular target: Epidermal growth factor receptor (Homo sapiens) (UniProt P00533); details: 1 uM
Description: Inhibition of recombinant human EGFR at 1 uM relative to control

[13] = molecular target: Receptor-type tyrosine-protein kinase FLT3 (Homo sapiens) (UniProt P36888); details: 1 uM
Description: Inhibition of recombinant human FLT3 at 1 uM relative to control

[14] = molecular target: Glycogen synthase kinase-3 alpha (Homo sapiens) (UniProt P49840); details: 1 uM
Description: Inhibition of GSK-3alpha (unknown origin) at 1 uM relative to control

[15] = molecular target: Tyrosine-protein kinase JAK2 (Homo sapiens) (UniProt O60674); details: 1 uM
Description: Inhibition of recombinant human JAK2 at 1 uM relative to control

[16] = molecular target: Vascular endothelial growth factor receptor 2 (Homo sapiens) (UniProt P35968); details: 1 uM
Description: Inhibition of recombinant human KDR at 1 uM relative to control

[17] = molecular target: Mitogen-activated protein kinase kinase kinase kinase 5 (Homo sapiens) (UniProt Q9Y4K4); details: 1 uM
Description: Inhibition of recombinant human KHS1 at 1 uM relative to control

[18] = molecular target: Mitogen-activated protein kinase kinase kinase 9 (Homo sapiens) (UniProt P80192); details: 1 uM
Description: Inhibition of recombinant human MLK1 at 1 uM relative to control

[19] = molecular target: Serine/threonine-protein kinase 4 (Homo sapiens) (UniProt Q13043); details: 1 uM
Description: Inhibition of recombinant human MST1 at 1 uM relative to control

[20] = molecular target: Serine/threonine-protein kinase 3 (Homo sapiens) (UniProt Q13188); details: 1 uM
Description: Inhibition of recombinant human MST2 at 1 uM relative to control

[21] = molecular target: T1, Serine/threonine-protein kinase PAK 1; details: 1 uM
Description: Inhibition of recombinant human PAK1 at 1 uM relative to control

[22] = molecular target: T2, Serine/threonine-protein kinase PAK 4; details: 1 uM
Target sequence in this assay (O96013 whole entry, looked up): as the sequence (O96013 whole entry) above
Description: Inhibition of recombinant human PAK4 at 1 uM relative to control

[23] = test system: Platelet-derived growth factor receptor alpha (Homo sapiens), P16234 [V561D]; details: 1 uM
Description: Inhibition of recombinant human PDGFRalpha V561D mutant at 1 uM relative to control

[24] = molecular target: Protein kinase C alpha type (Homo sapiens) (UniProt P17252); details: 1 uM
Description: Inhibition of recombinant human PKCalpha at 1 uM relative to control

[25] = molecular target: Protein kinase C delta type (Homo sapiens) (UniProt Q05655); details: 1 uM
Description: Inhibition of recombinant human PKCdelta at 1 uM relative to control

[26] = molecular target: Proto-oncogene tyrosine-protein kinase Src (Homo sapiens) (UniProt P12931); details: 1 uM
Description: Inhibition of recombinant human Src at 1 uM relative to control

[27] = molecular target: High affinity nerve growth factor receptor (Homo sapiens) (UniProt P04629); details: 1 uM
Description: Inhibition of recombinant human TrkA at 1 uM relative to control

[28] = molecular target: BDNF/NT-3 growth factors receptor (Homo sapiens) (UniProt Q16620); details: 1 uM
Description: Inhibition of recombinant human TrkB at 1 uM relative to control

[29] = Lipophilicity, log D of the compound at pH 7.4; format: physicochemical; details: buffer
[30] = molecular target: T1, Serine/threonine-protein kinase PAK 1; assay: Inhibition of PAK1 in human EBC1 cells assessed as inhibition of MEK phosphorylation at S298; format: cell-based
[31] = Oral bioavailability in mouse at 25 mg/kg; format: ADME, organism-based; details: in vivo
[32] = Apparent permeability across apical to basolateral side of MDCK cells; format: ADME, cell-based, Canis lupus familiaris; details: dog
[33] = Clearance in mouse at 0.3 mg/kg, iv; format: ADME, organism-based; details: in vivo
[34] = (§1) AUC in mouse at 25 mg/kg, po; format: ADME, organism-based; details: in vivo
[35] = test system: Mus musculus; assay: as §1; format: ADME, organism-based; details: in vivo, BLD = below limit of detection

T1 sequence (Q13153 whole entry): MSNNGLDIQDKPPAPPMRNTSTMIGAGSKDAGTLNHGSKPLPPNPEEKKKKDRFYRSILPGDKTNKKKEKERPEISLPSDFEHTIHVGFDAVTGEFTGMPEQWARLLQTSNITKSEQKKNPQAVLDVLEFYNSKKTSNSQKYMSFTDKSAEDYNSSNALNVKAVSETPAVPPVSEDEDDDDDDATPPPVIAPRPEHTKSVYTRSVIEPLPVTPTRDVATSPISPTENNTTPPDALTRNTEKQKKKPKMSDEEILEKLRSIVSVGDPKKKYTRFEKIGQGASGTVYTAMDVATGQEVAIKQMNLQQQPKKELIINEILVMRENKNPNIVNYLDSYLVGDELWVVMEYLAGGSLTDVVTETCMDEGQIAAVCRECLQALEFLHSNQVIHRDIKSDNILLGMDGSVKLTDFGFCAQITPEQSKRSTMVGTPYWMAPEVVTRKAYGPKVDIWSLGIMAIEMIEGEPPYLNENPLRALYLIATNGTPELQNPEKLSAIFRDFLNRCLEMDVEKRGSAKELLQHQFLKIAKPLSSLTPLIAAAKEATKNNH
Protein kinase C theta type (Homo sapiens), sequence (Q04759 whole entry, looked up): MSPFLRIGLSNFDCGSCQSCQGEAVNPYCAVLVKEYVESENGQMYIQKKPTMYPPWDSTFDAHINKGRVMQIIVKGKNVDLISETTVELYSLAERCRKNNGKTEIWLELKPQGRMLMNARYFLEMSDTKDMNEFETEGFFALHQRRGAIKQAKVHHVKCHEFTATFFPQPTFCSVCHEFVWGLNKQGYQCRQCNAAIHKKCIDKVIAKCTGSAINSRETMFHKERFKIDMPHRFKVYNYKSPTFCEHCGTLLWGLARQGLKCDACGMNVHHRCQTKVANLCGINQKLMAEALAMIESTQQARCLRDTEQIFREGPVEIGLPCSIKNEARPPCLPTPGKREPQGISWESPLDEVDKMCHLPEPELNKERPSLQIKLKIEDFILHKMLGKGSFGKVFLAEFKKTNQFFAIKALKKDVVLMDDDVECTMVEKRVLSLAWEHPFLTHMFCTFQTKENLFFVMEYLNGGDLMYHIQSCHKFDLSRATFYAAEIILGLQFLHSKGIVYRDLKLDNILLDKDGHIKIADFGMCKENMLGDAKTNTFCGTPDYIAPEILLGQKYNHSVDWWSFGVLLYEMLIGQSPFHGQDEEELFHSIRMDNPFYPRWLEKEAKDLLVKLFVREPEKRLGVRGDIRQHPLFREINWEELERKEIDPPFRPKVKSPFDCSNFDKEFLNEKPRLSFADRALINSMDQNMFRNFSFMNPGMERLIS
Vascular endothelial growth factor receptor 2 (Homo sapiens), sequence (P35968 whole entry): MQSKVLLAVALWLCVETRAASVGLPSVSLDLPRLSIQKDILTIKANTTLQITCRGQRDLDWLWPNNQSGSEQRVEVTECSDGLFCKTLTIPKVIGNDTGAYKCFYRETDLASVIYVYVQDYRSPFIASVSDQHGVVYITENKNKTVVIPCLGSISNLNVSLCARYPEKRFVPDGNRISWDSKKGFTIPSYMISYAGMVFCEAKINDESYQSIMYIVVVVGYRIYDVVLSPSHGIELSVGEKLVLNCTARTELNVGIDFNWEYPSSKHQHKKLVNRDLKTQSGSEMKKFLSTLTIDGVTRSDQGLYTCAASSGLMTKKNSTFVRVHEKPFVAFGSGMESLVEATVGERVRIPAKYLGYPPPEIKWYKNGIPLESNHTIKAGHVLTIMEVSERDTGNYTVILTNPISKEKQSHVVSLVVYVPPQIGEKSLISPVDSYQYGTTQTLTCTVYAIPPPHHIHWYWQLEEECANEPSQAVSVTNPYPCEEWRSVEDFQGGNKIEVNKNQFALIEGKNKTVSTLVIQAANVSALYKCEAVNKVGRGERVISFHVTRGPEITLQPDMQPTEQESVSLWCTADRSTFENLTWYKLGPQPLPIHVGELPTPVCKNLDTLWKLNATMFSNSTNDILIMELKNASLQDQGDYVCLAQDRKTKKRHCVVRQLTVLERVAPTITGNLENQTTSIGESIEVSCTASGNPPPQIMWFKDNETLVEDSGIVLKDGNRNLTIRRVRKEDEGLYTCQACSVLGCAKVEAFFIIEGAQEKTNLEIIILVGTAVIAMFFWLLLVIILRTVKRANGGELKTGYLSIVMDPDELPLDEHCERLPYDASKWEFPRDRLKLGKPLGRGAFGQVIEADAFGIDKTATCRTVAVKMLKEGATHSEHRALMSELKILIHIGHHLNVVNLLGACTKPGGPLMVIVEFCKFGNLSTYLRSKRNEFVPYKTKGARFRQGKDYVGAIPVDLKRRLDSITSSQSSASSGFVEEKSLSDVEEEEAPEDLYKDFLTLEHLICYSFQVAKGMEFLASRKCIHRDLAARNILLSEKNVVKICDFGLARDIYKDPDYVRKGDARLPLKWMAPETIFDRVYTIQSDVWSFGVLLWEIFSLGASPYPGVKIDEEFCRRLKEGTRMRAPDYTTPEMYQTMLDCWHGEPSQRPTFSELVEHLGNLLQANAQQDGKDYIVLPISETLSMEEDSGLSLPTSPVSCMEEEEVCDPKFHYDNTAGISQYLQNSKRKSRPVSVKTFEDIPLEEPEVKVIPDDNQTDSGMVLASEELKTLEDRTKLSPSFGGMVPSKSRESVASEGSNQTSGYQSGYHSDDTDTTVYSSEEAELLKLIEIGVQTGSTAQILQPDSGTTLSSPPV
Glycogen synthase kinase-3 alpha (Homo sapiens), sequence (P49840 2-483 limits assumed): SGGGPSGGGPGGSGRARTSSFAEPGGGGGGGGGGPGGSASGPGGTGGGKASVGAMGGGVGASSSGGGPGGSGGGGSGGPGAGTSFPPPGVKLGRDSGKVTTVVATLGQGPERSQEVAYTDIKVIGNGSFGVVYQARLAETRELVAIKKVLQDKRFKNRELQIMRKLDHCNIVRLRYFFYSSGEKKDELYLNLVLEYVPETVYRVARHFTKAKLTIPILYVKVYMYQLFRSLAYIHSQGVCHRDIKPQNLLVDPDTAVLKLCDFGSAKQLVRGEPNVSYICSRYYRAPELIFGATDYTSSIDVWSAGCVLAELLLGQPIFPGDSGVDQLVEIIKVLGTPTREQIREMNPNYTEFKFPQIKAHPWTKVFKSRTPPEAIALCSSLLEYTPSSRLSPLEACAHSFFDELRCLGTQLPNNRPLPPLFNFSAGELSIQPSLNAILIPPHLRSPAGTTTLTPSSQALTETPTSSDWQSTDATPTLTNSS
Proto-oncogene tyrosine-protein kinase Src (Homo sapiens), sequence (P12931 2-536 limits assumed): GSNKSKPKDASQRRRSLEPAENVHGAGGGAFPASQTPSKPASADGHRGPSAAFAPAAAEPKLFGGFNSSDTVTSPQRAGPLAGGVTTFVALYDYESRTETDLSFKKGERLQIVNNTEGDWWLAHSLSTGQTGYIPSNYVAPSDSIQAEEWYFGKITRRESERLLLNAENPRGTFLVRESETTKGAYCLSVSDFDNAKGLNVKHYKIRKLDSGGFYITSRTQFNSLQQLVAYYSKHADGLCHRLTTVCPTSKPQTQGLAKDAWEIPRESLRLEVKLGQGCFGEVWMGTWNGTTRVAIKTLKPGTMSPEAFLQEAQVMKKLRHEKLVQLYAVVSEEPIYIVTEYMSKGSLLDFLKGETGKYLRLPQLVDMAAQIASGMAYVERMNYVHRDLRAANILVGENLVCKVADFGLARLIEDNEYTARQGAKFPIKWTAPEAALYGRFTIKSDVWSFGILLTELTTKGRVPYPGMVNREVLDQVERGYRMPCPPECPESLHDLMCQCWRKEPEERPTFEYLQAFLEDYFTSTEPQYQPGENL
Cyclin-dependent kinase 1/cyclin B1 (Homo sapiens), sequence (P06493 whole entry, looked up): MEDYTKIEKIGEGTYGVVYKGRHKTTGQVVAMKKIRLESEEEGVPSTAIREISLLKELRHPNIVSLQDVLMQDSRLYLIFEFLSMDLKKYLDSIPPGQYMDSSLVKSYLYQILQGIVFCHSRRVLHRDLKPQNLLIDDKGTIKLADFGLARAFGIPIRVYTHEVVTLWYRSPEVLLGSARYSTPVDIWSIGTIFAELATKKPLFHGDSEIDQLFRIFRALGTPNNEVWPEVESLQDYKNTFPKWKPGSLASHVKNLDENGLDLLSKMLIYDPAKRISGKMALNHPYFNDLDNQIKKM
Cyclin-dependent kinase 1/cyclin B1 (Homo sapiens), sequence (P14635 whole entry, looked up): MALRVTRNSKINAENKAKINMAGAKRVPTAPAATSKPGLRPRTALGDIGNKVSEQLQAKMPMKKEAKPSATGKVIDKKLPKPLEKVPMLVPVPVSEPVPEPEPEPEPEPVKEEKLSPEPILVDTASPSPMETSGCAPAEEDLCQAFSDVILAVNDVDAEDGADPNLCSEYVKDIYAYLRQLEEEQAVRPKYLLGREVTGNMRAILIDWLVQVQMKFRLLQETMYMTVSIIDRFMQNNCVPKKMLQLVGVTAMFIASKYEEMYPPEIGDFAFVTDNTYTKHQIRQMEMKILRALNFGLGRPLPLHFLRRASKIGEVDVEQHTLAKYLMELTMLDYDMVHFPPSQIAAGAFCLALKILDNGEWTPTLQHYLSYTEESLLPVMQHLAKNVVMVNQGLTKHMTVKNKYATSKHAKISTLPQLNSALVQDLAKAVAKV

Ki [1]: 29 nM
Ki [2]: 617 nM
Ki [3]: 131 nM
Structure (SMILES): COCC(C)c1cc(Nc2ccnc(N(C)Cc3ccc4[nH]cnc4c3Cl)n2)n[nH]1 (stereo not drawn)

Ki [1]: 16 nM
Ki [2]: 629 nM
Ki [3]: 17 nM
Structure (SMILES): CN(Cc1ccc2[nH]cnc2c1Cl)c1nccc(Nc2cc(C3CCC(=O)C3)[nH]n2)n1 (racemic)

Ki [1]: 552 nM
Ki [2]: > 2900 nM
Ki [3]: > 5400 nM
Structure (SMILES): CN1CC[C@@H](c2cc(Nc3ccnc(N(C)Cc4ccc5[nH]cnc5c4Cl)n3)n[nH]2)C1=O

Ki [1]: > 4500 nM
Ki [2]: > 2900 nM
Ki [3]: > 5400 nM
Structure (SMILES): CN1CC(C)(C)C(c2cc(Nc3ccnc(N(C)C[C@H]4CC[C@H](N)CC4)n3)n[nH]2)C1=O (stereo partly drawn)

Ki [1]: 25 nM
Ki [2]: 1300 nM
Ki [3]: 25 nM
Structure (SMILES): Clc1c(CNc2nccc(Nc3cc(C4CCCO4)[nH]n3)n2)ccc2[nH]cnc12 (racemic)

Ki [1]: 46 nM
Ki [2]: 1020 nM
Ki [3]: > 5400 nM
inhibition [4]: > 75%
inhibition [5]: < 75%
inhibition [6]: < 75%
inhibition [7]: < 75%
inhibition [8]: < 75%
inhibition [9]: < 75%
inhibition [10]: < 75%
inhibition [11]: < 75%
inhibition [12]: < 75%
inhibition [13]: < 75%
inhibition [14]: < 75%
inhibition [15]: < 75%
inhibition [16]: < 75%
inhibition [17]: < 75%
inhibition [18]: < 75%
inhibition [19]: < 75%
inhibition [20]: < 75%
inhibition [21]: > 75%
inhibition [22]: < 75%
inhibition [23]: < 75%
inhibition [24]: < 75%
inhibition [25]: < 75%
inhibition [26]: < 75%
inhibition [27]: < 75%
inhibition [28]: < 75%
Structure (SMILES): C[C@H]1CN(C)C(=O)[C@@H]1c1cc(Nc2ccnc(N(C)C[C@H]3CC[C@H](N)CC3)n2)n[nH]1

Ki [1]: 362 nM
Ki [2]: 2490 nM
Ki [3]: > 5400 nM
Structure (SMILES): CN1CCCC(c2cc(Nc3ccnc(N(C)C[C@H]4CC[C@H](N)CC4)n3)n[nH]2)C1=O (mixture of isomers)

Ki [1]: 37 nM
Ki [2]: 344 nM
Ki [3]: 3500 nM
logD [29]: 0.96
IC50 [30]: > 10000 nM
bioavailability [31]: < 1%
Structure (SMILES): CN1CC[C@H](c2cc(Nc3ccnc(N(C)C[C@H]4CC[C@H](N)CC4)n3)n[nH]2)C1=O

Ki [1]: 18 nM
Ki [2]: 817 nM
Ki [3]: > 5400 nM
Structure (SMILES): CCN1CC[C@H](c2cc(Nc3ccnc(N(C)C[C@H]4CC[C@H](N)CC4)n3)n[nH]2)C1=O

Ki [1]: 18 nM
Ki [2]: 950 nM
Ki [3]: > 5400 nM
logD [29]: 1.8
Papp A→B [32]: 5 ×10⁻⁶ cm/s
IC50 [30]: 7800 nM
clearance [33]: 7 mL/min/kg
AUC [34]: 5.2 µM·h
bioavailability [31]: < 1%
Structure (SMILES): CN1CC[C@H](c2cc(Nc3ccnc(N(C)Cc4ccc5[nH]cnc5c4Cl)n3)n[nH]2)C1=O

Ki [1]: 111 nM
Ki [2]: 1270 nM
Ki [3]: > 5400 nM
Structure (SMILES): CN1CC[C@H](c2cc(Nc3ccnc(NC[C@H]4CC[C@H](N)CC4)n3)n[nH]2)C1=O

Ki [1]: 373 nM
Ki [2]: > 2900 nM
Ki [3]: 893 nM
Structure (SMILES): CC(=O)N(C)Cc1cc(Nc2ccnc(N(C)Cc3ccc4[nH]cnc4c3Cl)n2)n[nH]1

Ki [1]: 49 nM
Ki [2]: 621 nM
Ki [3]: > 5400 nM
inhibition [4]: > 75%
logD [29]: 0.12
IC50 [30]: > 10000 nM
clearance [33]: 33 mL/min/kg
AUC [35]: BLD
bioavailability [31]: < 1%
inhibition [5]: < 75%
Structure (SMILES): CCN(C[C@H]1CC[C@H](N)CC1)c1nccc(Nc2cc([C@H]3CCN(C)C3=O)[nH]n2)n1

Ki [1]: 5 nM
Ki [2]: 272 nM
Ki [3]: 3 nM
Structure (SMILES): CN(Cc1ccc2[nH]cnc2c1Cl)c1nccc(Nc2cc(C3CC3)[nH]n2)n1
